Results as given in ChEMBL document CHEMBL4043194, “Nrf2 activators from Glycyrrhiza inflata and their hepatoprotective activities against CCl4-induced liver injury in mice” (Bioorg Med Chem, 2017).
Active and inactive are the calls of the source. No cut-off for these calls is given here.

Key:
[1] = molecular target: T1, Nuclear factor erythroid 2-related factor 2 (Homo sapiens) (UniProt Q16236); assay: Activation of Nrf2 (unknown origin) expressed in human HepG2 cells assessed as cytoprotection against CCL4-induced cell injury by measuring increase in cell viability at 2.5 to 20 uM relative to untreated control; type: cell-based
T1 sequence (whole entry): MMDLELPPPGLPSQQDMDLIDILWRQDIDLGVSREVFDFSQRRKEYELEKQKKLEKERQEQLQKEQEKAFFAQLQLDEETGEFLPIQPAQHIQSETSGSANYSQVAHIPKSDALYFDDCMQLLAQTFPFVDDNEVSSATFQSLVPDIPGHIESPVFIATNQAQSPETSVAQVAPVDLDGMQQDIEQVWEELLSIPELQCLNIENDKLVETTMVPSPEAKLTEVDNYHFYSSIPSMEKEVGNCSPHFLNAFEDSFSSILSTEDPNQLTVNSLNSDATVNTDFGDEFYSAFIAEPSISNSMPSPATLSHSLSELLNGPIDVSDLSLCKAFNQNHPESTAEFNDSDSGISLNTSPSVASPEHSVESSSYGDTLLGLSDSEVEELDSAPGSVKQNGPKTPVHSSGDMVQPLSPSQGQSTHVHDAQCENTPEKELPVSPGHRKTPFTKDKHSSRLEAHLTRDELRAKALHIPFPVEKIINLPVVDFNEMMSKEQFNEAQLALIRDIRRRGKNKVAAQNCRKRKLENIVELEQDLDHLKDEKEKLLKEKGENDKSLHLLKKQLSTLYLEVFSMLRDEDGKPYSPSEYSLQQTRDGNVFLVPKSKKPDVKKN

[2] = Half life in Sprague-Dawley rat at 50 mg/kg, po administered as single dose measured after 0.08 to 24 hrs post dose by LC/MS/MS method; type: ADME, organism-based; conditions: in vivo
[3] = Cmax in Sprague-Dawley rat at 50 mg/kg, po administered as single dose measured after 0.08 to 24 hrs post dose by LC/MS/MS method; type: ADME, organism-based; design: dose 50 mg/kg, route oral; conditions: in vivo
[4] = MRT (0 to t) in Sprague-Dawley rat at 50 mg/kg, po administered as single dose measured after 0.08 to 24 hrs post dose by LC/MS/MS method; type: ADME, organism-based; conditions: in vivo
[5] = tested on: Mus musculus; assay: (§1) Hepatoprotective activity against CCL4-induced liver damage in ICR mouse assessed as reduction in liver lesions by measuring ballooning degeneration at 50 mg/kg, po administered once daily for 7 consecutive days followed by CCL4 challenge 6 hrs after last dose and measured 24 hrs post CCL4 injection by hematoxylin-eosin staining based light microscopy; type: functional, organism-based
[6] = tested on: Mus musculus; assay: as §1, with “neutrophil infiltration” for “ballooning degeneration”; type: functional, organism-based
[7] = tested on: Mus musculus; assay: Hepatoprotective activity against CCL4-induced liver damage in ICR mouse assessed as LDH level at 50 mg/kg, po administered once daily for 7 consecutive days followed by CCL4 challenge 6 hrs after last dose and measured 24 hrs post CCL4 injection (reference value: 2818 U/L); type: functional
[8] = molecular target: T1, Nuclear factor erythroid 2-related factor 2 (Homo sapiens); assay: Activation of Nrf2 (unknown origin) expressed in human HepG2 cells at 10 uM incubated for 6 hrs by ARE-driven luciferase reporter gene assay relative to untreated control; type: cell-based
[9] = tested on: HepG2; assay: Cytotoxicity in human HepG2 cells expressing Nrf2/ARE-driven luciferase at 10 to 40 uM incubated for 6 hrs; type: cell-based; conditions: hepg2, 6 h
[10] = tested on: Mus musculus; assay: Hepatoprotective activity against CCL4-induced liver damage in ICR mouse assessed as alanine aminotransferase level at 50 mg/kg, po administered once daily for 7 consecutive days followed by CCL4 challenge 6 hrs after last dose and measured 24 hrs post CCL4 injection (reference value: 1025 U/L); type: functional
[11] = MRT (0 to infinity) in Sprague-Dawley rat at 50 mg/kg, po administered as single dose measured after 0.08 to 24 hrs post dose by LC/MS/MS method; type: ADME, organism-based; conditions: in vivo
[12] = Tmax in Sprague-Dawley rat at 50 mg/kg, po administered as single dose measured after 0.08 to 24 hrs post dose by LC/MS/MS method; type: ADME, organism-based; conditions: in vivo
[13] = tested on: Rattus norvegicus; assay: AUC (0 to infinity) in Sprague-Dawley rat at 50 mg/kg, po administered as single dose measured after 0.08 to 24 hrs post dose by LC/MS/MS method; type: ADME, organism-based; design: dose 50 mg/kg, time infinity, route oral; conditions: in vivo
[14] = tested on: Mus musculus; assay: Hepatoprotective activity against CCL4-induced liver damage in ICR mouse assessed as aspartate aminotransferase level at 50 mg/kg, po administered once daily for 7 consecutive days followed by CCL4 challenge 6 hrs after last dose and measured 24 hrs post CCL4 injection (reference value: 625 U/L); type: functional
[15] = Apparent volume of distribution during terminal phase in Sprague-Dawley rat at 50 mg/kg, po administered as single dose measured after 0.08 to 24 hrs post dose by LC/MS/MS method; type: ADME, organism-based; conditions: in vivo, read-out: Vz/F
[16] = molecular target: T1, Nuclear factor erythroid 2-related factor 2 (Homo sapiens); assay: Activation of Nrf2 (unknown origin) expressed in human HepG2 cells at 2.5 to 10 uM incubated for 6 hrs by ARE-driven luciferase reporter gene assay; type: cell-based
[17] = tested on: Mus musculus; assay: as §1, with “necrosis” for “ballooning degeneration”; type: functional, organism-based
[18] = tested on: Rattus norvegicus; assay: VRT (0 to t) in Sprague-Dawley rat at 50 mg/kg, po administered as single dose measured after 0.08 to 24 hrs post dose by LC/MS/MS method; type: ADME, organism-based; conditions: in vivo
[19] = AUC (0 to t) in Sprague-Dawley rat at 50 mg/kg, po administered as single dose measured after 0.08 to 24 hrs post dose by LC/MS/MS method; type: ADME, organism-based; design: dose 50 mg/kg, time 0.08-24 hr, route oral; conditions: in vivo
[20] = tested on: Rattus norvegicus; assay: VRT (0 to infinity) in Sprague-Dawley rat at 50 mg/kg, po administered as single dose measured after 0.08 to 24 hrs post dose by LC/MS/MS method; type: ADME, organism-based; conditions: in vivo
[21] = tested on: Rattus norvegicus; assay: Apparent clearance during terminal phase in Sprague-Dawley rat at 50 mg/kg, po administered as single dose measured after 0.08 to 24 hrs post dose by LC/MS/MS method; type: ADME, organism-based; conditions: in vivo
[22] = tested on: HepG2; assay: Cytotoxicity in human HepG2 cells expressing Nrf2/ARE-driven luciferase at 20 to 40 uM incubated for 6 hrs; type: cell-based; conditions: hepg2, 6 h
[23] = molecular target: T1, Nuclear factor erythroid 2-related factor 2 (Homo sapiens); assay: Activation of Nrf2 (unknown origin) expressed in human HepG2 cells at 2.5 to 20 uM incubated for 6 hrs by ARE-driven luciferase reporter gene assay; type: cell-based
[24] = tested on: Mus musculus; assay: as §1, with “100” for “50”; type: functional, organism-based
[25] = tested on: Mus musculus; assay: Hepatoprotective activity against CCL4-induced liver damage in ICR mouse assessed as aspartate aminotransferase level at 100 mg/kg, po administered once daily for 7 consecutive days followed by CCL4 challenge 6 hrs after last dose and measured 24 hrs post CCL4 injection (reference value: 625 U/L); type: functional, organism-based
[26] = tested on: Mus musculus; assay: Hepatoprotective activity against CCL4-induced liver damage in ICR mouse assessed as alanine aminotransferase level at 100 mg/kg, po administered once daily for 7 consecutive days followed by CCL4 challenge 6 hrs after last dose and measured 24 hrs post CCL4 injection (reference value: 1025 U/L); type: functional, organism-based
[27] = tested on: Mus musculus; assay: as §1, with “necrosis” for “ballooning degeneration”, “100” for “50”; type: functional, organism-based
[28] = tested on: Mus musculus; assay: Hepatoprotective activity against CCL4-induced liver damage in ICR mouse assessed as LDH level at 100 mg/kg, po administered once daily for 7 consecutive days followed by CCL4 challenge 6 hrs after last dose and measured 24 hrs post CCL4 injection (reference value: 2818 U/L); type: functional, organism-based
[29] = tested on: Mus musculus; assay: as §1, with “neutrophil infiltration” for “ballooning degeneration”, “100” for “50”; type: functional, organism-based

C=CC(C)(C)c1cc(/C=C/C(=O)c2ccc(O)cc2)c(OC)cc1O [LICOAGROCHACONE A]
Activity [1]: > 60% | half-life [2]: 10.3 h | Cmax [3]: 96.8 ng/mL | MRT last [4]: 8.48 h | Activity [5]: Active | Activity [6]: Active | Activity [7]: 800 - 1200 U/L | fold change (FC) [8]: 4.07 | Activity [9]: Toxic | Activity [10]: 70 - 100 U/L | MRT inf [11]: 14.5 h | Tmax [12]: 2.5 h | AUC [13]: 993.88 ng·h/mL | Activity [14]: 150 - 180 U/L | Vd/F [15]: 370 L/kg | Activity [16]: Dose-dependent effect | Activity [17]: Active | VRT(t) [18]: 40.43 hr2 | AUC(0-t) [19]: 837 ng·h/mL | VRT [20]: 256.28 hr2 | CLz/F [21]: 389.8 mL/min/kg

COc1cc(O)ccc1/C=C/C(=O)c1ccc(O)cc1 [ECHINATIN]
Activity [1]: > 60% | half-life [2]: 7.32 h | Cmax [3]: 228 ng/mL | MRT last [4]: 3.98 h | Activity [5]: Active | Activity [6]: Active | Activity [7]: 800 - 1200 U/L | Activity [22]: Toxic | fold change (FC) [8]: 4.09 | Activity [10]: 70 - 100 U/L | MRT inf [11]: 3.98 h | Tmax [12]: 0.5 h | AUC [13]: 1154.92 ng·h/mL | Activity [14]: 150 - 180 U/L | Vd/F [15]: 154 L/kg | Activity [17]: Active | VRT(t) [18]: 9.97 hr2 | Activity [23]: Dose-dependent effect | AUC(0-t) [19]: 686 ng·h/mL | VRT [20]: 217.15 hr2 | CLz/F [21]: 349.5 mL/min/kg

COc1c(/C=C/C(=O)c2ccc(O)cc2)ccc(O)c1O
Activity [1]: > 60% | Activity [5]: Active | Activity [6]: Active | Activity [7]: 800 - 1200 U/L | Activity [22]: Toxic | fold change (FC) [8]: 5.17 | Activity [10]: 70 - 100 U/L | Activity [14]: 150 - 180 U/L | Activity [17]: Active | Activity [23]: Dose-dependent effect

SILYMARIN
Activity [24]: Active | Activity [25]: 150 to 180 U/L | Activity [26]: 70 to 100 U/L | Activity [27]: Active | Activity [28]: 800 to 1200 U/L | Activity [29]: Active
